Measurements from patent US8470525B2, “Method for analyzing air” (priority 2011, dated 2013).

Assays:
Type in all cases: biochemical
[1] = target: T1, acetylcholinesterase enzyme (Homo sapiens, UniProt P22303); test: Enzyme-based air monitoring device: detection of cholinesterase inhibitor in air by loss of acetylcholinesterase/indoxyl acetate fluorescence signal; details: Example 4, FIG. 8: aerosol from 2.5 ppm paraoxon solution; 4 minute cycles; polyethylene disk 15-45 um; clean-air cycle around 14,000
T1 sequence (P22303 32-614, species assumed): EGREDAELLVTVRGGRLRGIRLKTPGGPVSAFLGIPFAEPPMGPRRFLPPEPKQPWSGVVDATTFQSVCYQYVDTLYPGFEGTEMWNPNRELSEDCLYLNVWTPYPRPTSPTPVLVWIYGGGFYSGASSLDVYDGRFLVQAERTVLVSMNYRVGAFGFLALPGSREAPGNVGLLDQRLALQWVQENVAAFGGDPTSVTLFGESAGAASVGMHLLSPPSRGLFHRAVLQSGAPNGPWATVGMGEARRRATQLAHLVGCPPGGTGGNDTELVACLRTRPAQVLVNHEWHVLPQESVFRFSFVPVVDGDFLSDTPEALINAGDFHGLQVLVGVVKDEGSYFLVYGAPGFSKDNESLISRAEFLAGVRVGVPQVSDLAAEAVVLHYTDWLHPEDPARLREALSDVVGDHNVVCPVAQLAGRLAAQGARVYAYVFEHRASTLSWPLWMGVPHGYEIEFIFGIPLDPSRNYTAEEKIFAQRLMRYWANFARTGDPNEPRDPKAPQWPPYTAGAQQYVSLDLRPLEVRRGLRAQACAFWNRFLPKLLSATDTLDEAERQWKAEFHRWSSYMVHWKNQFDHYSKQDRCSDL
Method: In this embodiment of the invention, the device and method operates in repetitive cycles ranging from 30 seconds to 10 minutes. […] The cycle shown in FIG. 2 took 5 minutes for completion. The enzyme and substrate addition took 5 seconds, the sampling time took 115 seconds, the reading took 85 seconds and was concluded by the alarm status update at the end which requires only a fraction of a second, and the rinse took 90 seconds. Each cycle concludes with the rinse step where components of the reaction are rinsed off the surface of the collection matrix and preferably from the reaction zone and the surface of the collection matrix, in order to set the stage for a new sampling cycle.
FIGS. 3a and 3b illustrate the steps of one 5 minute cycle with no detection event in more detail. […] Particles, aerosols and vapor from the environment are collected on the impactor disk or surface of the collection matrix. During this step one nebulizer is activated adding aerosolized enzyme visualized in FIGS. 3a and 3b by clam shaped symbols. The enzyme is being accumulated on the impactor disk/surface of the collection matrix. […] During the next step 4) 85 seconds reading, the catalytic reaction of the enzyme substrate complex is monitored with an optical system. […] During the reading period, the air sampling pump is typically switched off. […]

[2] = Air monitoring device: detection of aerosolized enzyme protein by fluorescence from indoxyl acetate substrate; details: Example 6, FIG. 10: enzyme solution 3 mg/ml aerosolized; 3 minute cycles; cycles four, five and six; clean air amplitude 0
Method: Example 6 provides a method of this invention for the detection of a protein in the air. The device in this example was operated continuously in 3 minute cycles. Each cycle consists of a 30 second sampling period at a flow rate of 1 liter per minute, a 5 second substrate addition step, a 85 second reading period and a 60 second rinse step. The consumables/reagents consisted of a) 12.5 mg/ml indoxyl acetate substrate solution in isopropyl alcohol (IPA), diluted in buffer 100 fold and b) 100 mM buffer at pH 7.0. This example used a polyethylene disk with a pore size of 15-45 um and a thickness of 1.6 mm as the impactor disk. The substrate aerosol was generated using 5×500 ms pulses every second for 5 seconds total. The rinse step at conclusion of the cycle was accomplished by continuously aerosolizing buffer for about 60 seconds.
Specifically, acetylcholinesterase enzyme solution was aerosolized into a plastic test chamber at a concentration of 3 mg/ml. The sampled air was contaminated with enzyme two times at intervals indicated by solid triangles (beginning) and white triangles (end). As set forth in FIG. 10, the device indicated the presence of the target protein by an amplitude increase to at least 2,000 fluorescent units in cycles four, five and six compared to an amplitude of 0 in cycles one, two and three during the time clean air was sampled.

[3] = target: T1, acetylcholinesterase enzyme; test: Air monitoring device: detection of aerosolized enzymatic substrate by fluorescence after enzyme addition; details: Example 7, FIG. 11: indoxyl acetate solution 0.1 mg/ml aerosolized; 4 minute cycles; cycles three and four; clean air amplitude 500
Method: Example 7 provides a method of this invention to detect other chemicals in the air. The device in this example was operated continuously in 4 minute cycles. Each cycle consists of a 2 minute second sampling period at a flow rate of 1 liter per minute, 5 second enzyme addition step, a 85 second reading period and a 30 second rinse step. The consumables/reagents consisted of a) 3 mg/ml acetylcholinesterase enzyme solution in buffer and b) 100 mM buffer at pH 7.0. This example used a polyethylene disk with a pore size of 15-45 um and a thickness of 1.6 mm as the impactor disk. The enzyme aerosol was generated using 5×500 ms pulses every second for 5 seconds total. The rinse step at conclusion of the cycle was accomplished by continuously aerosolizing buffer for about 30 seconds.
Specifically, indoxyl acetate solution was aerosolized into a plastic test chamber at a concentration of 0.1 mg/ml. […] The device indicated the presence of the target protein by an amplitude increase to at least 3,000 fluorescent units in cycles three and four compared to an amplitude of 500 in cycles one and two during the time clean air was sampled.

## CCOP(=O)(OCC)Oc1ccc([N+](=O)[O-])cc1 [paraoxon]
[1]
  signal amplitude: around 4,000 fluorescent units

## acetylcholinesterase
[2]
  amplitude increase: at least 2,000 fluorescent units

## indoxyl acetate
[3]
  amplitude increase: at least 3,000 fluorescent units
